Experimental data published in patent US20250263404A1, “AMINOPYRIDINES AS ACTIVATORS OF PI3 KINASE” (UCL Business Ltd, priority 2021, published 2025).

Columns and labels:
PIP3 levels in MEFs = assay: PIP3 measurement by mass spectrometry in MEFs; format: cell-based, mouse
Procedure: FIG. 21. a, MEFs were stimulated for the indicated time points with 1938 (5 μM) or for 2 min with PDGF (20 ng/ml) or insulin (100 nM), followed by lipid extraction and PIP3 measurement by mass spectrometry. b, MEFs were stimulated for 2 min with increasing doses of 1938 or PDGF, followed by lipid extraction and PIP3 measurement by mass spectrometry. c, A549 cells were stimulated for 2 min with increasing doses of 1938 or insulin, or 10 ng/ml PDGF, followed by lipid extraction and PIP3 measurement by mass spectrometry.
Class I PI3Ks phosphorylate the PtdIns(4,5)P2 lipid in the plasma membrane to generate PtdIns(3,4,5)P3 (or PIP3), which can be converted to PtdIns(3,4)P2 by the action of 5-phosphatases. Treatment of MEFs (Mouse Embryonic Fibroblasts) with 1938 very rapidly (within 30 sec) led to increased PIP3 levels, as assessed by mass spectrometry, maxing at 5 min and maintained at this maximum level for up to 40 min (FIG. 21a). […] The observation of different levels of PIP3 induced by these growth factors is in line with the notion that PI3Kα is the sole mediator of PIP3 production downstream of insulin. This contrasts with PDGF, which activates both PI3Kα and PI3Kβ, with the latter PI3K isoform contributing substantially to acute PDGF-stimulated PIP3 generation in MEFs, correlating with the higher PIP3 levels induced by this agonist compared to insulin and 1938 (FIG. 21a). In the same experiment as in FIG. 21a, clear PI(3,4)P2 signal was detected in MEFs upon PDGF stimulation but not with 1938 (at 5 μM). This is consistent with a higher threshold for detection of PI(3,4)P2 compared to PIP3 by mass spectrometry (due primarily to background contamination, as discussed by Malek et al.), together with the relatively lower PI3K activation by 1938 compared to a high dose of PDGF, as is also illustrated by the experiments shown below.
These maximal 1938-induced PIP3 levels are below those required to give rise to sufficient PI(3,4)P2 to be detectable by mass spectrometry, a conclusion also supported by the observation that substantial levels of PIP3 induced by lower doses of PDGF (e.g. 0.5 ng/ml) were also not sufficient to give rise to levels of PI(3,4)P2 detectable by mass. […] A strong PIP3 response was also observed with insulin in these cells, with no PIP3 induced by PDGF, in line with the absence of this receptor in epithelial cells, including in A549.

PI3Kα = PI3Kα (Homo sapiens, UniProt P42336); assay: ADP-Glo in vitro lipid kinase assay, PI3Kα; format: biochemical; parameters: Full-length p110α was expressed in a complex with full-length p85α (for biochemistry and HDX-MS); 6xHis followed by TEV protease site (N); made in house; host or cells: Spodoptera frugiperda Sf9 (baculovirus co-infection; plasmids OP831 and OP809)
PI3Kα, sequence (P42336 whole entry, the tested form may be a part): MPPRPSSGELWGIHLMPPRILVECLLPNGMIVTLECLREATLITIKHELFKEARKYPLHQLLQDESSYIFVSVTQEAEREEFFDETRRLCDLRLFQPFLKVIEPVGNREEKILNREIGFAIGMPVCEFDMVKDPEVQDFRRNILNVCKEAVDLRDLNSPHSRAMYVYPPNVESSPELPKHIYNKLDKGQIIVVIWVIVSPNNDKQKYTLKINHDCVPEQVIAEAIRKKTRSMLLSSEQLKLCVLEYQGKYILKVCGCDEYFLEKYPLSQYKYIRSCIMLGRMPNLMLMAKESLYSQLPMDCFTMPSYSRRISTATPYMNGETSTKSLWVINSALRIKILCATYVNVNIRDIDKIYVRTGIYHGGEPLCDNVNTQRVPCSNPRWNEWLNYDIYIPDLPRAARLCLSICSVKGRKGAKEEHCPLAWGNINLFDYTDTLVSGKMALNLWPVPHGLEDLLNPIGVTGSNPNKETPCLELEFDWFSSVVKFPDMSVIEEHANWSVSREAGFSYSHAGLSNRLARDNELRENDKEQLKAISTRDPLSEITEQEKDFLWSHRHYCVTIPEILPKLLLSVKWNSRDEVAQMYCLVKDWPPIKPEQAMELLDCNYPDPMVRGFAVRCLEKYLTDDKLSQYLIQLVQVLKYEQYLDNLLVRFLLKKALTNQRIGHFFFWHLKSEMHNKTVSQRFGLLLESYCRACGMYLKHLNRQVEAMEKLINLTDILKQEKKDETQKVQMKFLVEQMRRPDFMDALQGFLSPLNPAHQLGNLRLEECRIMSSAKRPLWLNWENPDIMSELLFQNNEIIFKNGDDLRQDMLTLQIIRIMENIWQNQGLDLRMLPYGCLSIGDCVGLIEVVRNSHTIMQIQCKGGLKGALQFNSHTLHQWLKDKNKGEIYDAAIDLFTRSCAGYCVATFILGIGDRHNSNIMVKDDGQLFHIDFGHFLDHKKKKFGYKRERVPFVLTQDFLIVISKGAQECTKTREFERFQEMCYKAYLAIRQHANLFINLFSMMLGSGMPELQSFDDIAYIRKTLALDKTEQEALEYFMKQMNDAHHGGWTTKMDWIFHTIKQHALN
PI3Kα, sequence (P27986 whole entry partner, the tested form may be a part): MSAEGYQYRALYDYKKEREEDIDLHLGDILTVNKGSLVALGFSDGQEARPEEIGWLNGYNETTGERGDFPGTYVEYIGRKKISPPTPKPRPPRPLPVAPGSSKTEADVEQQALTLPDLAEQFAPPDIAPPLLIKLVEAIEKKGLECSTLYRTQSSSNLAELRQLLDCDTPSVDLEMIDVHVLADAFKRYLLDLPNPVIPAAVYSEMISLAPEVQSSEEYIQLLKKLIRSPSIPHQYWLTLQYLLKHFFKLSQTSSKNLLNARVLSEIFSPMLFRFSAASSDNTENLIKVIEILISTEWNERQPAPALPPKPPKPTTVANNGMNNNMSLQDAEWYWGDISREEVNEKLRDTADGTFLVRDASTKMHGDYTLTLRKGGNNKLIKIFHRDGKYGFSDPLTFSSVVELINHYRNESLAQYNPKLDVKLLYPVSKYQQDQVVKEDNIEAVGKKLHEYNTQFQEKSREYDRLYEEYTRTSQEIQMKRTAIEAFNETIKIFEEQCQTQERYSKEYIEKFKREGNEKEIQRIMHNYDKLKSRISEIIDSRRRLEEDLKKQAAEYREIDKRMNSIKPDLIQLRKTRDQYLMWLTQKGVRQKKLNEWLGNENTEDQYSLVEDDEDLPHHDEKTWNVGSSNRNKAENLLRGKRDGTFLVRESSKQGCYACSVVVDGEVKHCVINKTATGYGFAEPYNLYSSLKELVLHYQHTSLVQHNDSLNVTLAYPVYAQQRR
Procedure: The effect of 1938 on the in vitro lipid kinase activity of p85α in complex with p110α, p110β or p110δ (further referred to as PI3Kα, PI3Kβ and PI3Kδ) was tested. As a positive control, a bis-phosphorylated phosphopeptide (a PDGF-receptor-derived peptide phosphorylated on Tyr-740 and Tyr-751, hereafter referred to as pY peptide) was used to mimic engagement of the p85α SH2 domains with tyrosine-phosphorylated peptides in membrane-bound receptors and adaptor proteins, known to activate the PI3Kα complex.
Kinase reactions were performed with ADP-Glo kinase assay kit (Promega Corporation). The enzyme, substrate and compounds were diluted in reaction buffer (20 mM HEPES, 50 mM NaCl, 50 mM KCl, 3 mM MgCl2, 1 mM EGTA, 1 mM TCEP, pH 7.4). Final concentrations of PI3Kα and PI3Kδ used were 25 nM and 50 nM for PI3Kβ. Liposomes (5% brain PI(4,5)P2, 20% brain phosphatidylserine, 45% brain phosphatidylethanolamine, 15% brain phosphatidylcholine, 10% cholesterol, 5% sphingomyelin (Avanti Polar Lipids)) were used at a final concentration of 1 mg/ml.
For compound profiling, the reaction mixture contained 2 μl PI3K enzyme, 2 μl compound and/or pY and 2 μl of liposome substrate mixed with ATP. ATP was used at a final concentration of 500 μM for PI3Kα and PI3Kβ and at 200 μM for PI3Kδ, unless otherwise stated. The final DMSO concentration in the assay was 1%. The experiments were performed at room temperature for 3 h using 384 white-polystyrene plates (Corning #3824) before addition of 6 μl of ADP-Glo R1 to terminate the reaction. The plate was incubated for 45 min, followed by addition of 12 μl of ADP-Glo R2 and incubated further for 60 min in the dark. Luminescence was read using a Sense (Hidex) plate reader. […] All analyses were performed using GraphPad Prism 7.
For characterisation of the effects of 1938 on in vitro PI3K enzymology, all reactions were performed at room temperature with 384 white-polystyrene plates (Corning #3574). The final DMSO concentration in the assay was between 0.5%-1.8%. The reaction mixture contained 2 μl PI3K enzyme, 2 μl compound and/or pY and 2 μl of liposome substrate mixed with ATP. ATP was used at a final concentration of 200 μM, unless otherwise stated. The enzyme and compounds were pre-incubated for 10 min prior to addition of substrate. The reaction was allowed to proceed for 45 min at room temperature, before addition of 6 μl of ADP-Glo R1 to terminate the reaction. The plate was incubated for 60 min, followed by addition of 12 μl of ADP-Glo R2 and incubated further for 60 min in the dark. For enzyme kinetic calculations, data was expressed as velocity (pmol of ADP generated/sec). ADP-ATP standard curves were performed according to the manufacturer's instructions, and all analyses were performed using GraphPad Prism 8.

CCN1CCN(c2ccc(Nc3cc(Nc4cccc5c4N(C(C)=O)CC5)ccn3)cc2)CC1 [Example 1938]
concentration at which PIP3 induction plateaus (PIP3 levels in MEFs; 2 min): around 10 μM | duration of maximum PIP3 level (PIP3 levels in MEFs; 1938 5 μM): up to 40 min | time of maximum PIP3 level (PIP3 levels in MEFs; 1938 5 μM): 5 min | time to increased PIP3 levels (PIP3 levels in MEFs; 1938 5 μM): ≤ 30 s | EC50 (PIP3 levels in MEFs; Mus musculus, 2 min, fixed 2 min time point, read-out: EC50 of PIP3 induction): ~5 µM | PI3Kα activation in combination with a saturating concentration of pY (PI3Kα; 1938 plus pY): synergistic PI3Kα activation | maximum rate of reaction (Vmax) of PI3Kα (PI3Kα; ATP titration): increased | turnover number (Kcat) of PI3Kα (PI3Kα; ATP titration): increased | effect on in vitro lipid kinase activity of PI3Kα (PI3Kα; concentration-dependent): activate PI3Kα | EC50 (PI3Kα; in vitro PI3Kα activation): 58 ± 28 µM | Max. activity relative to 1938 (PI3Kα; relative to 1938): 100% | Max. activity relative to pY ctrl (PI3Kα; relative to pY control): 397 ± 60%
